As usually defined, the IC50 is the point on the concentration scale where inhibition reaches its midpoint.

Chain of YAP-TEAD protein interaction (His-TEAD1 (209-426) protein, Bio-YAP peptide (60-100)) (P28347 209-426): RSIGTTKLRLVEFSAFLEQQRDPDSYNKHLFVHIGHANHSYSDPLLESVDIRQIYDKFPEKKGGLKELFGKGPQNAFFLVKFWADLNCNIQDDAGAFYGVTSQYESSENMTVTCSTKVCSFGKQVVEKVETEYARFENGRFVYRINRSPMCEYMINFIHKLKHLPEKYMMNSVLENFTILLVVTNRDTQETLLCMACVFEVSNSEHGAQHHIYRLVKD

The target in the test is YAP-TEAD protein interaction (His-TEAD1 (209-426) protein, Bio-YAP peptide (60-100)) (Homo sapiens, UniProt P28347). Description: YAP-TEAD protein interaction HTRF experiment. In kind it is binding. The settings on record: His-TEAD1 (209-426) 10 nM, Bio-YAP peptide 50 nM, read-out: Activity of each compound in blocking YAP-TEAD protein interaction (grades of IC50 values). As to the method:
In this example, the YAP-TEAD protein interaction HTRF experiment was used to detect the activity of each compound in blocking the YAP-TEAD protein interaction.
The experiment was carried out according to the following operation steps:
Step 1: His-TEAD1 (209-426) protein was added to a 384-well detection white plate to a final concentration of 10 nM, and buffer was used as the background signal well. The compounds to be tested were subjected to 3-fold dilution and a total of 10 concentration gradients were set up, and each diluted solution was mixed well. A certain volume of the compound to be tested was added to each well separately, 2 replicates were set for each concentration, and the final concentration of DMSO was controlled at 1%. Incubation was carried out at room temperature for 20 minutes. The amino acid sequence of TAED1 (209-426) used in this step is shown in SEQ ID NO: 1:
After mixing evenly, the mixture was incubated at room temperature for 10 minutes.
Step 3: Anti-His-Eu cryptate gold and streptavidin-XL665 were diluted according to the instructions and mixed in equal proportions. A certain volume of the detection reagent was added to the well, and the mixture was incubated at room temperature for 1 hour.
Step 4: The signal was detected using an Envision (Perkin Elmer) microplate reader at an excitation wavelength of 320 nm and emission wavelengths of 665 nm and 620 nm.
Step 5: The signal was calculated based on the ratio of Em665/Em620*10000.
The inhibition percentage (%) was calculated using the following formula: […]
The half-maximal inhibitory concentration (IC50) values were calculated using GraphPad Prism software.
In general terms: TR-FRET usually uses a lanthanide donor and a delayed reading to cut background.
For `Cn1cc2c(n1)COc1c-2cc(C(N)=O)c(-c2c(Cl)c(F)cc3c2C[C@](c2ccccc2)([C@@H]2CCCN2)O3)c1F` (atropisomer, axis not shown) [Compound 3′, (R)-7-((S)-5-Chloro-6-fluoro-2-phenyl-2-((S)-pyrrolidin-2-yl)-2,3-dihydrobenzofuran-4-yl)-6-fluoro-2-methyl-2,4-dihydrochromeno[3,4-c]pyrazole-8-carboxamide], the IC50 fell in the range of 50 to 500 nM.

With `Cc1nnc2n1-c1cc(C(N)=O)c(-c3c(Cl)c(F)cc4c3C[C@](c3ccccc3)([C@@H]3CCCN3)O4)c(F)c1OC2` (atropisomer, axis not shown) [Compound 43, (S)-7-((S)-5-Chloro-6-fluoro-2-phenyl-2-((S)-pyrrolidin-2-yl)-2,3-dihydrobenzofuran-4-yl)-6-fluoro-1-methyl-4H-benzo[b][1,2,4]triazolo[4,3-d][1,4]oxazine-8-carboxamide], the IC50 lay in the range of 50 to 500 nM.

For `NC(=O)c1cc2c(c(F)c1-c1c(Cl)c(F)cc3c1C[C@](c1ccccc1)([C@@H]1CCCN1)O3)Oc1ncnc(N)c1O2` (atropisomer, axis not shown) [Compound 113, (S)-4-Amino-8-((S)-5-chloro-6-fluoro-2-phenyl-2-((S)-pyrrolidin-2-yl)-2,3-dihydrobenzofuran-4-yl)-9-fluorobenzo[5,6][1,4]dioxo [2,3-d]pyrimidine-7-carboxamide], the 50% inhibitory concentration (IC50) is 50 to 500 nM.

On to `[2H]c1c([2H])c([2H])c([C@]2([C@@H]3CCCN3)Cc3c(cc(F)c(Cl)c3-c3c(C(N)=O)cc4c(c3F)OCc3nn(C)cc3-4)O2)c([2H])c1[2H]` (atropisomer, axis not shown) [Compound 117, (S)-7-((S)-5-Chloro-6-fluoro-2-(phenyl-d5)-2-((S)-pyrrolidin-2-yl)-2,3-dihydrobenzofuran-4-yl)-6-fluoro-2-methyl-2,4-dihydrochromeno[3,4-c]pyrazole-8-carboxamide], for which the IC50 is above 5000 nM.

As for `NC(=O)c1cc2c(c(F)c1-c1c(Cl)c(F)cc3c1C[C@](c1ccccc1)([C@@H]1CCCN1)O3)Oc1c(cnn(C3COC3)c1=O)O2` (atropisomer, axis not shown) [Compound 145, (S)-8-((S)-5-Chloro-6-fluoro-2-phenyl-2-((S)-pyrrolidin-2-yl)-2,3-dihydrobenzofuran-4-)-9-fluoro-2-(oxetan-3-yl)-1-oxo-1,2-dihydrobenzo[5,6][1,4]dioxo [2,3-d]pyridazine-7-carboxamide], the IC50 is below 50 nM.

For `CNC[C@@]1(c2ccccc2)Cc2c(cc(F)c(Cl)c2-c2c(C(N)=O)cc3c(ccn3C)c2F)O1` (atropisomer, axis not shown) [Compound I-2, (S)-5-((S)-5-Chloro-6-fluoro-2-((methylamino)methyl)-2-phenyl-2,3-dihydrobenzofuran-4-yl)-4-fluoro-1-methyl-1H-indole-6-carboxamide], the IC50 is below 50 nM.

In the case of `NC(=O)c1cn2ccnc2c(F)c1-c1c(Cl)c(F)cc2c1C[C@](c1ccccc1)([C@@H]1CCCN1)O2` (atropisomer, axis not shown) [Compound I-11, (S)-7-((S)-5-Chloro-6-fluoro-2-phenyl-2-((S)-pyrrolidin-2-yl)-2,3-dihydrobenzofuran-4-yl)-8-fluoroimidazo[1,2-a]pyridine-6-carboxamide], the IC50 is below 50 nM.

Turning to `CNC(=O)c1cc2c(c(F)c1-c1c(Cl)c(F)cc3c1C[C@](c1ccccc1)([C@@H]1CCCN1)O3)OCCN2` (atropisomer, axis not shown) [Compound I-26, (S)-7-((2S)-5-Chloro-6-fluoro-2-phenyl-2-((S)-pyrrolidin-2-yl)-2,3-dihydrobenzofuran-4-yl)-8-fluoro-N-methyl-3,4-dihydro-2H-benzo[b][1,4]oxazine-6-carboxamide], the IC50 is below 50 nM.

For `NC(=O)c1cc2c(c(F)c1-c1c(Cl)c(F)cc3c1C[C@](c1ccccc1)([C@@H]1CCCN1)O3)OCC2` (atropisomer, axis not shown) [Compound I-31, (2S,4S)-5-Chloro-6,7′-difluoro-2-phenyl-2-((S)-pyrrolidin-2-yl)-2,2′,3,3′-tetrahydrofuran-[4,6′-bibenzofuran]-5′-carboxamide], the IC50 is below 50 nM.

On to `NC(=O)c1cc2c(c(F)c1-c1c(Cl)c(F)cc3c1C[C@](c1ccccc1)([C@@H]1CCCN1)O3)OCCOC2` (atropisomer, axis not shown) [Compound I-54, (S)-8-((S)-5-Chloro-6-fluoro-2-phenyl-2-((S)-pyrrolidin-2-yl)-2,3-dihydrobenzofuran-4-yl)-9-fluoro-2,3-trihydro-5H-benzo[e][1,4]dioxa-7-carboxamide], for which the IC50 is below 50 nM.

Regarding `NC(=O)c1cc2c(c(F)c1-c1c(Cl)c(F)cc3c1C[C@](c1ccccc1)([C@@H]1CCCN1)O3)[C@@H](O)CC2` (atropisomer, axis not shown) [Compound I-57, (1S,6S)-6-((S)-5-Chloro-6-fluoro-2-phenyl-2-((S)-pyrrolidin-2-yl)-2,3-dihydrobenzofuran-4-yl)-7-fluoro-1-hydroxy-2,3-dihydro-1H-indene-5-carboxamide], the IC50 is below 50 nM.

For the compound `NC(=O)c1cc2c(c(F)c1-c1c(Cl)c(F)cc3c1C[C@](c1ccccc1)([C@@H]1CCCN1)O3)[C@H](O)CC2` (atropisomer, axis not shown) [Compound I-58, (1R,6S)-6-((S)-5-Chloro-6-fluoro-2-phenyl-2-((S)-pyrrolidin-2-yl)-2,3-dihydrobenzofuran-4-yl)-7-fluoro-1-hydroxy-2,3-dihydro-1H-indene-5-carboxamide], the IC50 was in the range of 50 to 500 nM.

For `CNC(=O)c1cc2c(c(F)c1-c1c(Cl)c(F)cc3c1C[C@](c1ccccc1)([C@@H]1CCCN1)O3)[C@@H](O)CC2` (atropisomer, axis not shown) [Compound I-59, (1S,6S)-6-((S)-5-Chloro-6-fluoro-2-phenyl-2-((S)-pyrrolidin-2-yl)-2,3-dihydrobenzofuran-4-yl)-7-fluoro-1-hydroxy-N-methyl-2,3-dihydro-1H-indene-5-carboxamide], the IC50 is below 50 nM.

Consider `CNC(=O)c1cc2c(c(F)c1-c1c(Cl)c(F)cc3c1C[C@](c1ccccc1)([C@@H]1CCCN1)O3)[C@H](O)CC2` (atropisomer, axis not shown) [Compound I-60, (1R,6S)-6-((S)-5-Chloro-6-fluoro-2-phenyl-2-((S)-pyrrolidin-2-yl)-2,3-dihydrobenzofuran-4-yl)-7-fluoro-1-hydroxy-N-methyl-2,3-dihydro-1H-indene-5-carboxamide], for which the IC50 lay within 50 to 500 nM.

Turning to `NC(=O)c1cc2c(c(F)c1-c1c(Cl)c(F)cc3c1C[C@](c1ccccc1)([C@@H]1CCCN1)O3)OCCO2` [Compound 1′, 7-((2S,4R)-5-Chloro-6-fluoro-2-phenyl-2-((S)-pyrrolidin-2-yl)-2,3-dihydrobenzofuran-4-yl)-8-fluoro-2,3-dihydrobenzo[b][1,4]dioxine-6-carboxamide], the IC50 was in the range of 50 to 500 nM.

For the compound `Cn1cc2c(n1)COc1c-2cc(C(N)=O)c(-c2c(Cl)c(F)cc3c2C[C@](c2ccccc2)([C@@H]2CC(O)CN2)O3)c1F` (stereo partly drawn) [Compound 55, (7S)-7-((2S)-5-Chloro-6-fluoro-2-((2S)-4-hydroxypyrrolidin-2-yl)-2-phenyl-2,3-dihydrobenzofuran-4-yl)-6-fluoro-2-methyl-2,4-dihydrochromeno[3,4-c]pyrazole-8-carboxamide], the IC50 lay in the range of 500 to 5000 nM.

As for `NC(=O)c1cc2c(c(F)c1-c1c(Cl)c(F)cc3c1C[C@](c1ccccc1)([C@@H]1CCCN1)O3)OC(CO)C2` (stereo partly drawn) [Compound I-52, (2S,6′S)-5-Chloro-6,7′-difluoro-2′-(hydroxymethyl)-2-phenyl-2-((S)-pyrrolidin-2-yl)-2,2′,3,3′-tetrahydro-[4,6′-bibenzofuran]-5′-carboxamide], the IC50 was below 50 nM.

Consider `NC(=O)c1cc2c(c(F)c1-c1c(Cl)c(F)cc3c1C[C@](c1ccccc1)([C@@H]1CCCN1)O3)OC(CO)CO2` (stereo partly drawn) [Compound I-53, (S)-7-((S)-5-Chloro-6-fluoro-2-phenyl-2-((S)-pyrrolidin-2-yl)-2,3-dihydrobenzofuran-4-yl)-8-fluoro-2-(hydroxymethyl)-2,4-dihydrobenzo[b][1,4] dioxoine-6-carboxamide], for which the IC50 was below 50 nM.

Turning to `N#CCC1Cc2cc(C(N)=O)c(-c3c(Cl)c(F)cc4c3C[C@](c3ccccc3)([C@@H]3CCCN3)O4)c(F)c2O1` (stereo partly drawn) [Compound I-55, (2S)-5-Chloro-2′-(cyanomethyl)-6,7′-difluoro-2-phenyl-2-((S)-pyrrolidin-2-yl)-2,2′,3,3′-tetrahydro-[4,6′-bibenzofuran]-5′-carboxamide], the half-inhibitory concentration (IC50) is below 50 nM.

With `CNC(=O)c1cc2c(c(F)c1-c1c(Cl)c(F)cc3c1C[C@](c1ccccc1)([C@@H]1CCCN1)O3)OC(CO)CO2` (stereo partly drawn) [Compound I-56, (S)-7-((S)-5-Chloro-6-fluoro-2-phenyl-2-((S)-pyrrolidin-2-yl)-2,3-dihydrobenzofuran-4-yl)-8-fluoro-2-(hydroxymethyl)-N-methyl-2,3-dihydrobenzo[b][1,4] dioxoine-6-carboxamide], the IC50 was below 50 nM.

These data come from US20250177408A1, “INHIBITOR OF INTERACTION BETWEEN YAP/TAZ AND TEAD, PREPARATION THEREOF, PHARMACEUTICAL COMPOSITION THEREOF AND USE THEREOF” (ETERN BIOPHARMA (SHANGHAI) CO., LTD., priority 2022, published 2025).
